One data set relates to Echinochloa oryzicola. Kind of data set: Herbicidal activity against Echinochloa oryzicola assessed as induction of crop damage after 28 days post compound application. Format: functional.
Data set [1] has as its system Schoenoplectiella juncoides. As to the kind of experiment: Herbicidal activity against Schoenoplectiella juncoides subsp. Hotarui (Ohwi) T. Koyama assessed as induction of crop damage after 28 days post compound application. Format: functional.
The subject of another data set is Pontederia vaginalis. Kind of data set: Herbicidal activity against Monochoria vaginalis assessed as induction of crop damage after 28 days post compound application. Format: functional.
In another data set the test system is Oryza sativa. Kind of data set: Phytotoxicity against two-leaf stage paddy Oryza sativa (rice) seedlings assessed as induction of crop damage after 28 days post compound application. The class given is organism-based. To be noted: in vivo, 672 h.

Take `COCc1cccc(C(O)c2nc(OC)cc(OC)n2)c1NS(=O)(=O)C(F)F` (stereo unspecified): the ED20 in the data set with Echinochloa oryzicola is 16 gAi/ha; in the data set on Oryza sativa it was 63 gAi/ha. In addition, the ED90 (in data set [1]; in the data set with Pontederia vaginalis) was 4 gAi/ha each time.
As for `CCOc1cccc(C(O)c2nc(OC)cc(OC)n2)c1NS(=O)(=O)C(F)F` (stereo unspecified), the ED20 in the data set on Echinochloa oryzicola is recorded as 63 gAi/ha; in the data set with Oryza sativa, 16 gAi/ha. In addition, the ED90 (in data set [1]; with Pontederia vaginalis) was 16 gAi/ha each time.
As for `CCCOc1cccc(C(O)c2nc(OC)cc(OC)n2)c1NS(=O)(=O)C(F)F` (stereo unspecified), the ED20 in the data set on Echinochloa oryzicola stood at 250 gAi/ha; in the data set with Oryza sativa it was 63 gAi/ha. The ED90 was 250 gAi/ha in data set [1] and 63 gAi/ha with Pontederia vaginalis.
As to `COc1cc(OC)nc(C(O)c2cccc(Oc3ccccc3)c2NS(=O)(=O)C(F)F)n1` (stereo unspecified), the ED20 is given as greater than 1000 gAi/ha in the data set with Echinochloa oryzicola and 1000 gAi/ha in the data set on Oryza sativa. The ED90 in data set [1] is greater than 1000 gAi/ha; in the data set on Pontederia vaginalis it was 250 gAi/ha.
For `COc1cc(OC)nc(C(O)c2cccc(SC)c2NS(=O)(=O)C(F)F)n1` (stereo unspecified), the ED20 in the data set on Echinochloa oryzicola is on record as 250 gAi/ha; in the data set on Oryza sativa, 63 gAi/ha. In addition, the ED90 (in data set [1]; in the data set with Pontederia vaginalis) was 63 gAi/ha each time.
With `CCSC(c1nc(OC)cc(OC)n1)c1ccccc1NS(=O)(=O)C(F)(F)F` (stereo unspecified), the results for the ED20 in the data set on Echinochloa oryzicola and in the data set with Oryza sativa were 1000 gAi/ha and 63 gAi/ha, respectively. Further, the values for the ED90 (in data set [1]; in the data set with Pontederia vaginalis) were 4 gAi/ha and 16 gAi/ha, respectively.
For `CC[S+]([O-])C(c1nc(OC)cc(OC)n1)c1ccccc1NS(=O)(=O)C(F)(F)F` (stereo unspecified), in that order: greater than 1000 gAi/ha, 1000 gAi/ha, 63 gAi/ha and 1000 gAi/ha.
Take `CCS(=O)(=O)C(c1nc(OC)cc(OC)n1)c1ccccc1NS(=O)(=O)C(F)(F)F` (stereo unspecified): the ED20 in the data set on Echinochloa oryzicola is greater than 1000 gAi/ha; with Oryza sativa it was 1000 gAi/ha. For the same compound, the ED90 (in data set [1]; with Pontederia vaginalis) was 250 gAi/ha throughout.
Regarding `COc1cc(OC)nc(C(O)c2c(F)cccc2NS(=O)(=O)C(F)F)n1` (stereo unspecified), the results for the ED20 in the data set on Echinochloa oryzicola and with Oryza sativa were 63 gAi/ha and 16 gAi/ha, respectively. The ED90 (in data set [1]; in the data set with Pontederia vaginalis) was 16 gAi/ha throughout.
For `COc1cc(OC)nc(C(O)c2c(Cl)cccc2NS(=O)(=O)C(F)F)n1` (stereo unspecified), the ED20 with Echinochloa oryzicola is listed as greater than 1000 gAi/ha; in the data set on Oryza sativa it was 1000 gAi/ha. In addition, the ED90 was found to be 250 gAi/ha in data set [1] and 64 gAi/ha in the data set on Pontederia vaginalis.
The matching figures for `COc1cc(OC)nc(C(O)c2cc(Cl)ccc2NS(=O)(=O)C(F)F)n1` (stereo unspecified): greater than 1000 gAi/ha, 1000 gAi/ha, greater than 1000 gAi/ha and 1000 gAi/ha.
For `COc1ccc(NS(=O)(=O)C(F)F)c(C(O)c2nc(OC)cc(OC)n2)c1` (stereo unspecified), the ED20 in the data set on Echinochloa oryzicola was greater than 1000 gAi/ha; with Oryza sativa it was 63 gAi/ha. The ED90 is listed as greater than 1000 gAi/ha in data set [1] and 250 gAi/ha in the data set on Pontederia vaginalis.
For `COc1cc(OC)nc(C(O)c2ccc(Cl)cc2NS(=O)(=O)C(F)F)n1` (stereo unspecified), the ED20 with Echinochloa oryzicola was found to be 250 gAi/ha; in the data set on Oryza sativa, 63 gAi/ha. Further, the ED90 (in data set [1]; in the data set with Pontederia vaginalis) was 63 gAi/ha in each case.
For `COc1cc(OC)nc(C(O)c2ccc(C)cc2NS(=O)(=O)C(F)F)n1` (stereo unspecified), the ED20 stood at 1000 gAi/ha with Echinochloa oryzicola and 16 gAi/ha with Oryza sativa. For the same compound, the ED90 (in data set [1]; with Pontederia vaginalis) was 16 gAi/ha each time.
With `COc1ccc(C(O)c2nc(OC)cc(OC)n2)c(NS(=O)(=O)C(F)F)c1` (stereo unspecified), the ED20 in the data set with Echinochloa oryzicola and in the data set on Oryza sativa was 16 gAi/ha each time. The values for the ED90 (in data set [1]; in the data set on Pontederia vaginalis) were 63 gAi/ha and 16 gAi/ha, respectively.
Take `COc1cc(OC)nc(C(O)c2cccc(F)c2NS(=O)(=O)C(F)F)n1` (stereo unspecified): the ED20 came out at 250 gAi/ha in the data set on Echinochloa oryzicola and 16 gAi/ha with Oryza sativa. For the same compound, the ED90 (in data set [1]; in the data set with Pontederia vaginalis) was 4 gAi/ha each time.
Regarding `COc1cc(OC)nc(C(O)c2cccc(C)c2NS(=O)(=O)C(F)F)n1` (stereo unspecified), the ED20 in the data set with Echinochloa oryzicola and in the data set with Oryza sativa was 16 gAi/ha each time. The figures for the ED90 (in data set [1]; with Pontederia vaginalis) were 16 gAi/ha and 4 gAi/ha, respectively.
With `COc1cc(OC)nc(C(O)c2cccc(OC)c2NS(=O)(=O)C(F)F)n1` (stereo unspecified), the ED20 turned out to be 16 gAi/ha in the data set on Echinochloa oryzicola and 4 gAi/ha with Oryza sativa. The ED90 in data set [1] was 63 gAi/ha; with Pontederia vaginalis, 16 gAi/ha.
For `CCc1cccc(C(O)c2nc(OC)cc(OC)n2)c1NS(=O)(=O)C(F)F` (stereo unspecified), the ED20 is reported as 16 gAi/ha in the data set on Echinochloa oryzicola and 63 gAi/ha with Oryza sativa. The ED90 in data set [1] was found to be 4 gAi/ha; with Pontederia vaginalis, 16 gAi/ha.
On to `CCCc1cccc(C(O)c2nc(OC)cc(OC)n2)c1NS(=O)(=O)C(F)F` (stereo unspecified), for which the ED20 in the data set with Echinochloa oryzicola was determined as 16 gAi/ha; with Oryza sativa, 63 gAi/ha. The ED90 in data set [1] is 63 gAi/ha; in the data set on Pontederia vaginalis, 16 gAi/ha.
For `COc1cc(OC)nc(C(O)c2ccccc2NS(=O)(=O)CF)n1` (stereo unspecified), the ED20 with Echinochloa oryzicola and in the data set with Oryza sativa was 63 gAi/ha each time. Besides, the ED90 (in data set [1]; in the data set with Pontederia vaginalis) was 16 gAi/ha throughout.
For `COc1cc(OC)nc(C(O)c2ccccc2NS(=O)(=O)CCl)n1` (stereo unspecified), the ED20 with Echinochloa oryzicola was 1000 gAi/ha; with Oryza sativa, 250 gAi/ha. The ED90 was determined as 63 gAi/ha in data set [1] and 16 gAi/ha with Pontederia vaginalis.
In the case of `COc1cc(OC)nc(C(O)c2ccccc2NS(=O)(=O)CC#N)n1` (stereo unspecified), the values for the ED20 in the data set on Echinochloa oryzicola and in the data set with Oryza sativa were 1000 gAi/ha and 250 gAi/ha, respectively. The ED90 is reported as 250 gAi/ha in data set [1] and 63 gAi/ha in the data set on Pontederia vaginalis.
Turning to `COc1cc(OC)nc(C(O)c2ccccc2NS(=O)(=O)C/C=C/Cl)n1` (stereo unspecified), the values for the ED20 in the data set on Echinochloa oryzicola and in the data set with Oryza sativa were greater than 1000 gAi/ha and 250 gAi/ha, respectively. Moreover, the ED90 in data set [1] is on record as 1000 gAi/ha; with Pontederia vaginalis, 250 gAi/ha.
Take `COc1cc(OC)nc(C(O)c2ccccc2NS(C)(=O)=O)n1` (stereo unspecified): the ED20 in the data set with Echinochloa oryzicola was 1000 gAi/ha; in the data set on Oryza sativa, 63 gAi/ha. In addition, the ED90 in data set [1] is greater than 1000 gAi/ha; in the data set with Pontederia vaginalis, 250 gAi/ha.
The matching figures for `CCS(=O)(=O)Nc1ccccc1C(O)c1nc(OC)cc(OC)n1` (stereo unspecified): 1000 gAi/ha, 1000 gAi/ha, greater than 1000 gAi/ha and 1000 gAi/ha.
For `COc1cc(OC)nc(C(O)c2ccccc2NS(=O)(=O)C(C)C)n1` (stereo unspecified), in that order: greater than 1000 gAi/ha, 1000 gAi/ha, greater than 1000 gAi/ha and 1000 gAi/ha.
Take `COc1cc(OC)nc(C(O)c2ccccc2NS(=O)(=O)c2ccccc2)n1` (stereo unspecified): the ED20 with Echinochloa oryzicola is greater than 1000 gAi/ha; in the data set with Oryza sativa it was 1000 gAi/ha. Moreover, the ED90 in data set [1] is recorded as greater than 1000 gAi/ha; with Pontederia vaginalis, 1000 gAi/ha.
Regarding `COc1cc(OC)nc(C(O)c2ccccc2NS(N)(=O)=O)n1` (stereo unspecified), the ED20 worked out at 1000 gAi/ha in the data set on Echinochloa oryzicola and 250 gAi/ha in the data set on Oryza sativa. In addition, the ED90 in data set [1] is recorded as greater than 1000 gAi/ha; with Pontederia vaginalis it was 1000 gAi/ha.
As for `COc1cc(OC)nc(C(=O)c2ccccc2NS(=O)(=O)C(F)(F)F)n1`, the ED20 is recorded as 1000 gAi/ha in the data set on Echinochloa oryzicola and 63 gAi/ha in the data set with Oryza sativa. Moreover, the ED90 (in data set [1]; with Pontederia vaginalis) was 16 gAi/ha throughout.
Regarding `COc1cc(OC)nc(C(OC)c2ccccc2NS(=O)(=O)C(F)(F)F)n1` (stereo unspecified), the ED20 in the data set with Echinochloa oryzicola and with Oryza sativa was 63 gAi/ha each time. Moreover, the figures for the ED90 (in data set [1]; in the data set with Pontederia vaginalis) were 63 gAi/ha and 16 gAi/ha, respectively.
As for `COc1cc(OC)nc(C(O[Si](C)(C)C)c2ccccc2NS(=O)(=O)C(F)(F)F)n1` (stereo unspecified), the ED20 with Echinochloa oryzicola was 1000 gAi/ha; with Oryza sativa, 63 gAi/ha. Moreover, the ED90 (in data set [1]; with Pontederia vaginalis) was 4 gAi/ha in each case.
With `COc1cc(OC)nc(C(OC(C)=O)c2ccccc2NS(=O)(=O)C(F)(F)F)n1` (stereo unspecified), the ED20 in the data set with Echinochloa oryzicola was greater than 1000 gAi/ha; in the data set with Oryza sativa, 63 gAi/ha. For the same compound, the ED90 in data set [1] is listed as 4 gAi/ha; in the data set with Pontederia vaginalis, 16 gAi/ha.
The matching figures for `C/C=N/OC(c1nc(OC)cc(OC)n1)c1ccccc1NS(=O)(=O)C(F)(F)F` (stereo unspecified): 1000 gAi/ha, 63 gAi/ha, 16 gAi/ha and 63 gAi/ha.
For `COc1cc(OC)nc(C(Cl)c2ccccc2NS(=O)(=O)C(F)(F)F)n1` (stereo unspecified), in that order: 1000 gAi/ha, 63 gAi/ha, 4 gAi/ha and 16 gAi/ha.
With `COc1cc(OC)nc(C(c2ccccc2NS(=O)(=O)C(F)(F)F)N(C)C)n1` (stereo unspecified), the ED20 in the data set on Echinochloa oryzicola was greater than 1000 gAi/ha; in the data set on Oryza sativa, 250 gAi/ha. Also, the ED90 in data set [1] was determined as 16 gAi/ha; with Pontederia vaginalis, 63 gAi/ha.
For `COc1cc(OC)nc(C(S)c2ccccc2NS(=O)(=O)C(F)(F)F)n1` (stereo unspecified), in that order: greater than 1000 gAi/ha, 250 gAi/ha, 63 gAi/ha and 63 gAi/ha.
The matching figures for `COc1cc(OC)nc(C(O)c2ccccc2NS(=O)(=O)C(F)(F)F)n1` (stereo unspecified): 1000 gAi/ha, 63 gAi/ha, 4 gAi/ha and 4 gAi/ha.
For `COc1cc(OC)nc(C(O)c2ccccc2NS(=O)(=O)C(F)F)n1` (stereo unspecified), in that order: 250 gAi/ha, 63 gAi/ha, 16 gAi/ha and 4 gAi/ha.

The record behind these values is ChEMBL document CHEMBL3046461, “Synthesis and herbicidal activity of sulfonanilides having a pyrimidinyl-containing group at the 2-position” (J Pestic Sci, 2011).
